# Assay results reported in patent US20240252693A1, “FOLATE RECEPTOR-TARGETED RADIOTHERAPEUTIC AGENTS AND THEIR USE” (Novartis AG, priority 2021, published 2024).
# Assays:
# FR-positive M109 tumor = assay: In vivo biodistribution in mice bearing M109 tumors; conditions: 177Lu chelate
# Excerpt: Four- to eight-week-old female nu/nu mice or NSG mice (Harlan Sprague-Dawley, Inc.) were maintained on a standard 12-h light-dark cycle and fed ad libitum with Folate deficient purified rodent diet (TestDiet #AIN-93G) for the duration of the experiment. FR-positive M109 or FR-negative HT29 tumor cells were inoculated in the subcutis dorsal medial area of mice. The biodistribution studies were typically performed when tumors were approximately 400-800 mm^3 in volume. Mice were divided into groups of three, and freshly prepared test articles and competitors were injected through the lateral tail vein in a volume of 100 μL/10 g of PBS. Four h to six days post radioactive-agent dose administration, mice were euthanized and organs (blood, heart, lungs, liver, spleen, and kidneys, intestine, stomach, muscle, brain and tumor) were collected, weighed and placed inside counting vials. Each tissue sample was counted for the activities of radioelement using a gamma-counter. Samples of the injectate were used as decay correction standards. Final bar graphs are expressed as % injected dose per gram of tissue or tumor to kidney ratio, or % tumor to (kidneys+liver+spleen) ratio.
# KB tumor = assay: In vivo biodistribution in mice bearing KB tumors; conditions: 177Lu chelate, 200 nmol/kg
Structure (SMILES),T/Kid (FR-positive M109 tumor; 300 nmol/kg),T/Liv (FR-positive M109 tumor; 300 nmol/kg),T/spl (FR-positive M109 tumor; 300 nmol/kg),T^2/kid (FR-positive M109 tumor; 300 nmol/kg),T/Kid (KB tumor),T/Liv (KB tumor),T/spl (KB tumor),T^2/kid (KB tumor),also measured
"Nc1nc2ncc(CNc3ccc(C(=O)N[C@@H](CCCCNC(=O)C[C@H](NC(=O)[C@H](Cc4ccc5ccccc5c4)NC(=O)[C@H](Cc4ccc5ccccc5c4)NC(=O)CN4CCN(CC(=O)O)CCN(CC(=O)O)CCN(CC(=O)O)CC4)C(=O)O)C(=O)O)cc3)nc2c(=O)[nH]1 [Compound 42, Pte-Lys(β-Asp-2-Nal-2-Nal-DOTA)-OH]",0.49 +/− 0.16,17.3 +/− 4.9,84.4 +/− 10.4,1.64 +/− 0.62,–,–,–,–,–
"Nc1nc2ncc(CNc3ccc(C(=O)N[C@@H](CCCCNC(=O)C[C@H](NC(=O)[C@H](Cc4ccc(Br)cc4)NC(=O)CNC(=O)CN4CCN(CC(=O)O)CCN(CC(=O)O)CCN(CC(=O)O)CC4)C(=O)O)C(=O)O)cc3)nc2c(=O)[nH]1 [Compound 43, Pte-Lys(β-Asp-4-Br-Phe-Gly-DOTA)-OH]",0.58 +/− 0.10,13.0 +/− 3.7,70.2 +/− 6.7,1.57 +/− 0.53,–,–,–,–,–
"Nc1nc2ncc(CNc3ccc(C(=O)NCCCC[C@H](NC(=O)CNC(=O)CN4CCN(CC(=O)O)CCN(CC(=O)O)CCN(CC(=O)O)CC4)C(=O)O)cc3)nc2c(=O)[nH]1 [Compound 45, DOTA-Gly-Lys(Pte)-OH]",–,–,–,–,0.16 +/− 0.01,6.8 +/− 1.1,50.7 +/− 24.0,0.64 +/− 0.19,–
"Nc1nc2ncc(CNc3ccc(C(=O)NCCCC[C@H](NC(=O)CN4CCN(CC(=O)O)CCN(CC(=O)O)CCN(CC(=O)O)CC4)C(=O)O)cc3)nc2c(=O)[nH]1 [Compound 46, DOTA-Lys(Pte)-OH]",–,–,–,–,0.19 +/− 0.03,6.3 +/− 1.9,66.9 +/− 30.8,0.84 +/− 0.32,–
"Nc1nc2ncc(CNc3ccc(C(=O)N[C@@H](CC(=O)NCCCC[C@H](NC(=O)CNC(=O)CN4CCN(CC(=O)O)CCN(CC(=O)O)CCN(CC(=O)O)CC4)C(=O)O)C(=O)O)cc3)nc2c(=O)[nH]1 [Compound 51, Pte-Asp(DOTA-Gly-ε-Lys-OH)—OH]",–,–,–,–,0.32 +/− 0.09,11.0 +/− 2.3,54.8 +/− 11.3,1.35 +/− 0.54,–
"CSCC[C@H](NC(=O)CN1CCN(CC(=O)O)CCN(CC(=O)O)CCN(CC(=O)O)CC1)C(=O)N[C@H](C(=O)N[C@@H](CCCCNC(=O)C[C@H](NC(=O)c1ccc(NCc2cnc3nc(N)[nH]c(=O)c3n2)cc1)C(=O)O)C(=O)O)C(C)C [Compound 54, Pte-Asp(DOTA-Met-Val-ε-Lys-OH)—OH]",–,–,–,–,–,–,–,–,T/Kid (FR-positive M109 tumor; 200 nmol/kg): 0.23 +/− 0.03; T/Liv (FR-positive M109 tumor; 200 nmol/kg): 9.0 +/− 0.9; T/spl (FR-positive M109 tumor; 200 nmol/kg): 56.4 +/− 6.2; T^2/kid (FR-positive M109 tumor; 200 nmol/kg): 0.76 +/− 0.12
"CSCC[C@H](NC(=S)Nc1ccc(CC2CN(CC(=O)O)CCN(CC(=O)O)CCN(CC(=O)O)CCN2CC(=O)O)cc1)C(=O)N[C@H](C(=O)N[C@@H](CCCCN1C(=O)CC(SC[C@@H](NC(=O)[C@H](CC(=O)O)NC(=O)[C@H](CC(=O)O)NC(=O)[C@H](CCCNC(=N)N)NC(=O)[C@H](CC(=O)O)NC(=O)CC[C@H](NC(=O)c2ccc(NCc3cnc4nc(N)[nH]c(=O)c4n3)cc2)C(=O)O)C(=O)O)C1=O)C(=O)O)C(C)C (stereo partly drawn) [Compound 58, DOTA-Bn-NHC(S)NH-Met-Val-Lys(Mal-S-Cys-Asp-Asp-Arg-Asp-Folate)-OH]",0.59 +/− 0.12,28.8 +/− 2.9,83.1 +/− 17.3,0.59 +/− 0.16,–,–,–,–,–
"Nc1nc2ncc(CNc3ccc(C(=O)N[C@@H](Cc4ccc(OCC(=O)NCCNC(=O)CN5CCN(CC(=O)O)CCN(CC(=O)O)CCN(CC(=O)O)CC5)cc4)C(=O)O)cc3)nc2c(=O)[nH]1 [Compound 61, Pte-Tyr(OCH2CO-EDA-DOTA)-OH]",0.27 +/− 0.03,8.6 +/− 3.9,40.3 +/− 18.7,1.05 +/− 0.28,–,–,–,–,–
"Nc1nc2ncc(CNc3ccc(C(=O)N[C@@H](Cc4ccc(OCCNC(=O)CN5CCN(CC(=O)O)CCN(CC(=O)O)CCN(CC(=O)O)CC5)cc4)C(=O)O)cc3)nc2c(=O)[nH]1 [Compound 64, Pte-Tyr(OCH2CH2—NH-DOTA)-OH]",0.38 +/− 0.07,14.6 +/− 2.0,85.5 +/− 7.7,1.48 +/− 0.51,–,–,–,–,–
"Nc1nc2ncc(CNc3ccc(C(=O)N[C@@H](CNC(=O)CNC(=O)CN4CCN(CC(=O)O)CCN(CC(=O)O)CCN(CC(=O)O)CC4)C(=O)O)cc3)nc2c(=O)[nH]1 [Compound 68, Pte-Dap(Gly-DOTA)-OH]",–,–,–,–,–,–,–,–,T/Kid (FR-positive M109 tumor; 200 nmol/kg): 0.29 +/− 0.08; T/Liv (FR-positive M109 tumor; 200 nmol/kg): 10.1 +/− 3.2; T/spl (FR-positive M109 tumor; 200 nmol/kg): 55.6 +/− 17.1; T^2/kid (FR-positive M109 tumor; 200 nmol/kg): 1.37 +/− 0.73
